Literature values, collected in US9238024B2, “Methods for improving health in canines” (Quality IP Holdings, LLC, priority 2012, dated 2016).

Legend:
canines [1] = test system: canines
canines [2] = test system: canines; remark: listed apart in the source

Compound | levels of serum insulin-like growth factor-I (canines [1]; canines) | size and strength of the quadriceps muscle (canines [1]; canines during remobilization) | new bone formation (canines [2]; adult canines of both sexes, exogenous growth hormone) | bone growth factors and fracture healing (canines [2]; canines) | quantity of protein in the blood plasma (canines [2]; canines given growth hormone)
CC(C)(N)C(=O)N[C@H](COCc1ccccc1)C(=O)N1CCC2(CC1)CN(S(C)(=O)=O)c1ccccc12 [MK-0677] | elevates | increases | – | – | –
growth hormone | – | – | marked increase | enhances | increased
